The test system of one experiment is rat MES model. The following applies: cited from earlier work.
Experiment [1] has as its system mechanical hyperalgesia in streptozotocin (STZ)-induced diabetic neuropathy. Briefly: streptozotocin-induced diabetic neuropathy, paw pressure test. The class given is in vivo, rat. As to conditions: 100 mg/kg p.o. As for the experimental part: The objective of this study was to assess the antinociceptive effects of CHF 3381 (25, 50 and 100 mg/kg p.o.) and gabapentin (100 mg/kg p.o) on mechanical hyperalgesia in streptozotocin (STZ)-induced diabetic neuropathy in rats. Diabetes was induced by intraperitoneal injection of STZ (75 mg/kg), and 23 days later its presence was confirmed by measuring of tail vein blood glucose levels and only rats with […] were included in the study.
After 25 days, distilled water, CHF3381 and gabapentin were administered 60 minutes before pain measurement. The nociceptive threshold was evaluated in all groups using a mechanical nociceptive stimulation (paw pressure test).
An increasing pressure (grams of contact pressure) was applied onto the both hind paws of the animal until a nociceptive reaction (vocalisation or paw withdrawal) was determined. The results, expressed as the percentage variation of the nociceptive threshold calculated respect the mean value of the vehicle-treated diabetic group, are reported in Table 2.

The subject of experiment [2] is formalin-induced licking and flinching. Kind of experiment: mouse formalin test, 9 day treatment (tolerance). The class given is in vivo, mice. As for the experimental part: The mice paw formalin test was performed as described by Wheeler-Aceto et al. (Psychopharmacology 104:35-44, 1991). Briefly, the day before the formalin injection, mice were placed individually into clear plastic cylinders for 30 minutes of adaptation. The day of testing 20 μl of 1% formalin was injected into the plantar surface of the left hind paw and the animals were again placed into the plastic cylinder for the behavioural observation. The amount of time, in seconds, the animals spent licking and flinching (L/F) the injected paw for the first 5 min (early phase), and then from 10 to 40 min(late phase) after formalin injection, was used as measurement of intensity of pain. CHF 3381 10-100 mg/kg i.p. and 25-200 mg/kg p.o. or the corresponding vehicles, were administered 15 and 30 min before formalin injection, respectively.
Moreover, the formalin test was used to examine whether tolerance develops with respect to the antihyperalgesic effect of CHF 3381 after chronic treatment in comparison with the standard opioid morphine. Briefly, mice were divided randomly into five groups (12 mice per group) and administered once daily for 8 days as follows: three groups with saline i.p., one group with CHF 3381 60 mg/kg i.p. and one group with morphine 20 mg/kg i.p. On ninth day these groups were treated in following way: one saline pre-treated group was treated with saline i.p. (g1); two saline pre-treated group were treated with CHF 3381 30 mg/kg i.p. (g2) and with morphine 6 mg/kg i.p. (g3), respectively; the group pre-treated with CHF 3381 60 mg/kg was treated with CHF 3381 30 mg/kg i.p. (g4) and the group pre-treated with morphine 20 mg/kg was treated with morphine 6 mg/kg i.p.(g5), a dose that was previously shown to be active in the formalin test. CHF 3381 and morphine were administered 15 and 30 min before formalin injection, respectively.

The mark [3] stands for this setting: G3: 6 mg/kg i.p. on ninth day after 8 days saline.
Where [4] appears, read: G5: 6 mg/kg i.p. on ninth day after 8 days morphine 20 mg/kg i.p.

Consider `CC(NC1Cc2ccccc2C1)C(N)=O.Cl` (stereo not shown) [2-(2-indanylamino)-propanamide hydrochloride], for which the anti-convulsivant activity result in the experiment on rat MES model is recorded as “anti-convulsivant activity”.
`Cl.NC(=O)C(CO)NC1Cc2ccccc2C1` (stereo not shown) [3-hydroxy-2-(2-indanylamino)-propanamide hydrochloride]: the anti-convulsivant activity entry in the experiment on rat MES model is reported as “anti-convulsivant activity”.
Regarding `NCC1(CC(=O)O)CCCCC1` [Gabapentin, gabapentin, reference compound], the Nociceptive threshold in experiment [1] (60 minutes before measurement) was found to be 229.2 ± 32.3 g. Also, the “% variation of the nociceptive threshold” value in experiment [1] (vs vehicle-treated diabetic group) was determined as 68%.
As to `CN1CC[C@]23c4c5ccc(O)c4O[C@H]2[C@@H](O)C=C[C@H]3[C@H]1C5` [Morphine, morphine, reference compound], the results for the Early phase in experiment [2] (setting [3]) and in experiment [2] (setting [4]) were 52 ± 15 s and 95 ± 9 s, respectively. The values for the Late phase in experiment [2] (setting [3]) and in experiment [2] (setting [4]) were 91 ± 21 s and 175 ± 22 s, respectively. Further, the “antihyperalgesic action after chronic treatment (tolerance)” value in experiment [2] (once daily for 8 days, test on ninth day) was “failed to show such actions”.
As for `CN(CC(N)=O)C1Cc2ccccc2C1.Cl` [N-2(indanyl)-N-methyl glicinamide hydrochloride], the anti-convulsivant activity result in the experiment on rat MES model is listed as “anti-convulsivant activity”.
